Data taken from ChEMBL document CHEMBL2086254, “Synthesis and identification of novel indolo[2,3-a]pyrimido[5,4-c]carbazoles as a new class of anti-cancer agents” (Eur J Med Chem, 2012).

Legend:
Format in all cases: functional
MOLT-4 = experiment: Cytotoxicity against human MOLT4 cells after 48 hrs by SRB assay; conditions: MOLT-4, 48 h
EKVX = experiment: Cytotoxicity against human EKVX cells after 48 hrs by SRB assay
NCI-H522 = experiment: Cytotoxicity against human NCI-H522 cells after 48 hrs by SRB assay; conditions: NCI-H522, 48 h
SNB-75 = experiment: Cytotoxicity against human SNB75 cells after 48 hrs by SRB assay; conditions: SNB-75, 48 h
U-251 = experiment: Cytotoxicity in human U251 cells after 48 hrs by SRB assay; conditions: U-251, 48 h
OVCAR-5 = experiment: Cytotoxicity against human OVCAR5 cells after 48 hrs by SRB assay; conditions: OVCAR-5, 48 h
RXF 393 = experiment: Cytotoxicity against human RXF393 cells after 48 hrs by SRB assay; conditions: RXF 393, 48 h
SN12C = experiment: Cytotoxicity against human SN12C cells after 48 hrs by SRB assay
PC-3 = experiment: Cytotoxicity against human PC3 cells after 48 hrs by SRB assay; conditions: PC-3, 48 h
DU-145 = experiment: Cytotoxicity against human DU145 cells after 48 hrs by SRB assay; conditions: DU-145, 48 h
MDA-MB-231 = experiment: Cytotoxicity against human MDA-MB-231 cells after 48 hrs by SRB assay; conditions: MDA-MB-231, 48 h
MDA-MB-468 = experiment: Cytotoxicity against human MDA-MB-468 cells after 48 hrs by SRB assay; conditions: MDA-MB-468, 48 h
NCI-H460 = experiment: Cytotoxicity against human NCI-H460 cells after 48 hrs by SRB assay; conditions: NCI-H460, 48 h
HCT-116 = experiment: Cytotoxicity against human HCT116 cells after 48 hrs by SRB assay; conditions: HCT-116, 48 h
HCT-15 = experiment: Cytotoxicity against human HCT15 cells after 48 hrs by SRB assay; conditions: HCT-15, 48 h
UACC-257 = experiment: Cytotoxicity against human UACC257 cells after 48 hrs by SRB assay; conditions: UACC-257, 48 h
[1] = read-out: LC50 (the source's name)

## Cn1c2ccccc2c2c3nc(N)[nH]c(=O)c3c3c4ccccc4n(C)c3c21
MOLT-4
  GI50: 6.09 µM
  TGI: > 100 µM
MOLT-4; [1]
  CC50: > 100 µM
EKVX
  GI50: 12.7 µM
  TGI: > 100 µM
EKVX; [1]
  CC50: > 100 µM
NCI-H522
  GI50: 14.5 µM
  TGI: > 100 µM
NCI-H522; [1]
  CC50: > 100 µM
SNB-75
  GI50: 66.6 µM
  TGI: > 100 µM
SNB-75; [1]
  CC50: > 100 µM
U-251
  GI50: 6.38 µM
  TGI: > 100 µM
U-251; [1]
  CC50: > 100 µM
OVCAR-5
  GI50: 52.3 µM
  TGI: > 100 µM
OVCAR-5; [1]
  CC50: > 100 µM
RXF 393
  GI50: 7.47 µM
  TGI: 37.6 µM
RXF 393; [1]
  CC50: > 100 µM
SN12C
  GI50: 6.49 µM
  TGI: > 100 µM
SN12C; [1]
  CC50: > 100 µM
PC-3
  GI50: 5.54 µM
  TGI: > 100 µM
PC-3; [1]
  CC50: > 100 µM
DU-145
  GI50: 8.2 µM
  TGI: > 100 µM
DU-145; [1]
  CC50: > 100 µM
MDA-MB-231
  GI50: 93 µM
  TGI: > 100 µM
MDA-MB-231; [1]
  CC50: > 100 µM
MDA-MB-468
  GI50: 21.7 µM
  TGI: 75.1 µM
MDA-MB-468; [1]
  CC50: > 100 µM
NCI-H460
  GI50: 3.06 µM
  TGI: > 100 µM
NCI-H460; [1]
  CC50: > 100 µM
HCT-116
  GI50: 3.2 µM
  TGI: 35.3 µM
HCT-116; [1]
  CC50: > 100 µM
HCT-15
  GI50: 1.98 µM
  TGI: > 100 µM
HCT-15; [1]
  CC50: > 100 µM
UACC-257
  GI50: 12.8 µM
  TGI: 32 µM
UACC-257; [1]
  CC50: 79.7 µM
